Reference: publication PMC3848040 (Science (New York, N.Y.), 2013)

How the values were obtained:
GTDC2dTM = biological target: T1, GTDC2dTM (Homo sapiens, UniProt Q8NAT1); test: glycosyl transfer, gel filtration and NMR of product; format: biochemical
T1 sequence (Q8NAT1 26-580 limits assumed): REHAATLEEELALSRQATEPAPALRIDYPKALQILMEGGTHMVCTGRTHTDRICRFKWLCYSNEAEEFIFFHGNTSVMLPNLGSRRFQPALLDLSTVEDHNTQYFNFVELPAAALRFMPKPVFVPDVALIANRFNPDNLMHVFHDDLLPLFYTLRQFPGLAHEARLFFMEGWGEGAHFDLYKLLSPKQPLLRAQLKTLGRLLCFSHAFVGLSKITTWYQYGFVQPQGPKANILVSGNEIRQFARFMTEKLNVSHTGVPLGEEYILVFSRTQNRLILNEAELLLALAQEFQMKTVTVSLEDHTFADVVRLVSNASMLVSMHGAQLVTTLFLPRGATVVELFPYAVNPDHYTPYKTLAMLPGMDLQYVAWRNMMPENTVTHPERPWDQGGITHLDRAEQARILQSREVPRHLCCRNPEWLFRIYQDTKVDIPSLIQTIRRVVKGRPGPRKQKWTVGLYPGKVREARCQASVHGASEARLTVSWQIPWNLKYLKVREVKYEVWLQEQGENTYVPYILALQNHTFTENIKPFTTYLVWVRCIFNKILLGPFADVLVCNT

B3GALNT2dTM = biological target: T2, B3GALNT2dTM (Homo sapiens, UniProt Q8NCR0); test: glycosyl transfer, MALDI-TOF/MS; format: biochemical; conditions: donor; acceptor GlcNAc-β4-Man-O-peptide
T2 sequence (Q8NCR0 24-500 limits assumed): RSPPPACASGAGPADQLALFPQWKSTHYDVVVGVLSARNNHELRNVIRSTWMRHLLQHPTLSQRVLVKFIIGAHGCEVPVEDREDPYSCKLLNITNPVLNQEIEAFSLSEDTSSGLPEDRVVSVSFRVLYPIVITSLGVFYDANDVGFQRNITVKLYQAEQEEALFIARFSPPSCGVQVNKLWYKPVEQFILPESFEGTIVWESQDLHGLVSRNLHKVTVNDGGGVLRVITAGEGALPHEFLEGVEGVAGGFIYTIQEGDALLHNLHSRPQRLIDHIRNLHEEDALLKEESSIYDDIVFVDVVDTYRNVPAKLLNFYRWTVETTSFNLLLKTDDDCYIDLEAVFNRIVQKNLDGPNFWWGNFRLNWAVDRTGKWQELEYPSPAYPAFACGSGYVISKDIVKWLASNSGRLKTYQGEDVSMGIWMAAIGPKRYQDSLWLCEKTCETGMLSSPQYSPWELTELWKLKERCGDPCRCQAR

Q: How did the “glycosyl transfer, gel filtration and NMR of product” value (GTDC2dTM; donor, acceptor Man-α-MU) turn out when `CC(=O)N[C@H]1[C@@H](OP(=O)(O)OP(=O)(O)OC[C@H]2O[C@@H](n3ccc(=O)[nH]c3=O)[C@H](O)[C@@H]2O)O[C@H](CO)[C@@H](O)[C@@H]1O` [UDP-GlcNAc] was run?
A: Reactant of the GTDC2dTM assay using Man-α-MU and UDP-GlcNAc was separated

Q: How did the “glycosyl transfer, MALDI-TOF/MS” value (B3GALNT2dTM) turn out when `CC(=O)N[C@H]1[C@@H](OP(=O)(O)OP(=O)(O)OC[C@H]2O[C@@H](n3ccc(=O)[nH]c3=O)[C@H](O)[C@@H]2O)O[C@H](CO)[C@H](O)[C@@H]1O` [UDP-GalNAc] was run?
A: incubated this protein with UDPGalNAc and the GlcNAc-β4-Man-O-peptide produced by the GTDC2dTM reaction

Q: Which “glycosyl transfer, gel filtration and NMR of product” value (GTDC2dTM; acceptor, donor UDP-GlcNAc) does the source give for `Cc1cc(=O)oc2cc(O[C@H]3O[C@H](CO)[C@@H](O)[C@H](O)[C@@H]3O)ccc12` [Man-α-MU, 4-methylumbelliferyl-α-D-mannoside] here?
A: conducted the transfer assay using fluorescently labeled mannoside (4-methylumbelliferyl-α-D-mannoside; Man-α-MU) as the acceptor
